Results: ChEMBL document CHEMBL4385620, “Inhibition of polypeptide N-acetyl-α-galactosaminyltransferases is an underlying mechanism of dietary polyphenols preventing colorectal tumorigenesis” (Bioorg Med Chem, 2019)
Activity calls are given as the source filed them. No cut-off for these calls is given here.

What was measured:
[1] = biological target: T1, Polypeptide N-acetylgalactosaminyltransferase 6 (Homo sapiens, UniProt Q8NCL4); experiment: Inhibition of catalytic activity of ppGalNAcT6 (unknown origin) using EA2 peptide as substrate incubated for 30 mins by HPLC-based enzyme assay
T1 sequence (Q8NCL4 whole entry): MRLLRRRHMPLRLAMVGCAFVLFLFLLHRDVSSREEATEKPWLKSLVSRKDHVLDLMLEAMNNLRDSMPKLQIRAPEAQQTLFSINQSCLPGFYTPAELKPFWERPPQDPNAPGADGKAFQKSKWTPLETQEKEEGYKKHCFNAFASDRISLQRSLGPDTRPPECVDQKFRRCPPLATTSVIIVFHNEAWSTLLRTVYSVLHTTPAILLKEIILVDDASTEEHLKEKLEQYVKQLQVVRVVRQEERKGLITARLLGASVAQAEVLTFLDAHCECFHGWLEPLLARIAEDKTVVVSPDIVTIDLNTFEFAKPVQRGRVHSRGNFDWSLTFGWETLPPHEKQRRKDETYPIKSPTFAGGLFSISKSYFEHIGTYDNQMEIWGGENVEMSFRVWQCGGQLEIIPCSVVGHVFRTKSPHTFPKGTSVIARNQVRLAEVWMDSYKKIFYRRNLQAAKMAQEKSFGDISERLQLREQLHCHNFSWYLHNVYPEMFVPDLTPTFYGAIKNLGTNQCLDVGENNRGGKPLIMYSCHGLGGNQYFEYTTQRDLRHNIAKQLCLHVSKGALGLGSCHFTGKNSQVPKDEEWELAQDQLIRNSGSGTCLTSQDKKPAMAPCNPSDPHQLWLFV

[2] = biological target: T2, Polypeptide N-acetylgalactosaminyltransferase 2 (Homo sapiens, UniProt Q10471); experiment: Binding affinity of human recombinant FLAG-tagged ppGalNAcT2 expressed in HEK293 cells assessed as dissociation rate by SPR analysis
[3] = tested on: HT-29; experiment: Effect on ppGalNAcT2 expression level in human HT-29 cells at 40 uM incubated for 48 hrs by Q-PCR analysis; type: ADME, cell-based; settings: ht-29, 48 h
[4] = tested on: HT-29; experiment: Effect on ppGalNAcT15 expression level in human HT-29 cells at 40 uM incubated for 48 hrs by Q-PCR analysis; type: ADME, cell-based; settings: ht-29, 48 h
[5] = biological target: T2, Polypeptide N-acetylgalactosaminyltransferase 2; experiment: Inhibition of ppGalNAcT2 in human HCT116 cells assessed as reduction in O-GalNAc glycosylation by measuring VVA lectin expression at 40 uM incubated for 48 hrs by Western blot analysis; type: cell-based
[6] = tested on: HT-29; experiment: Effect on ppGalNAcT12 expression level in human HT-29 cells at 40 uM incubated for 48 hrs by Q-PCR analysis; type: ADME, cell-based; settings: ht-29, 48 h
[7] = tested on: HT-29; experiment: Cytotoxicity against human HT-29 cells at 40 uM incubated for 48 hrs by CCK-8 assay; type: cell-based; settings: ht-29, 48 h
[8] = tested on: HCT-116; experiment: Antimigratory activity in human HCT116 cells at 40 uM incubated for 48 hrs by crystal violet staining based method; type: functional, cell-based
[9] = biological target: T2, Polypeptide N-acetylgalactosaminyltransferase 2; experiment: Inhibition of catalytic activity of human recombinant FLAG-tagged ppGalNAcT2 using Muc7 peptide as substrate incubated for 30 mins by HPLC-based enzyme assay
[10] = tested on: HT-29; experiment: Effect on ppGalNAcT4 expression level in human HT-29 cells at 40 uM incubated for 48 hrs by Western blot analysis; type: ADME, cell-based; settings: ht-29, 48 h
[11] = species on record: Cricetulus griseus; experiment: Inhibition of ppGalNAcT2 in Chinese hamster ldlD cell lysates assessed as reduction in O-GalNAc glycosylation by measuring glycans VVA lectin expression at 0.5 to 4 uM incubated for 30 mins by Western blot analysis; type: subcellular; settings: Lysate
[12] = biological target: T3, Polypeptide N-acetylgalactosaminyltransferase 10 (Homo sapiens, UniProt Q86SR1); experiment: Inhibition of catalytic activity of ppGalNAcT10 (unknown origin) using EA2 peptide as substrate incubated for 30 mins by HPLC-based enzyme assay
T3 sequence (Q86SR1 whole entry): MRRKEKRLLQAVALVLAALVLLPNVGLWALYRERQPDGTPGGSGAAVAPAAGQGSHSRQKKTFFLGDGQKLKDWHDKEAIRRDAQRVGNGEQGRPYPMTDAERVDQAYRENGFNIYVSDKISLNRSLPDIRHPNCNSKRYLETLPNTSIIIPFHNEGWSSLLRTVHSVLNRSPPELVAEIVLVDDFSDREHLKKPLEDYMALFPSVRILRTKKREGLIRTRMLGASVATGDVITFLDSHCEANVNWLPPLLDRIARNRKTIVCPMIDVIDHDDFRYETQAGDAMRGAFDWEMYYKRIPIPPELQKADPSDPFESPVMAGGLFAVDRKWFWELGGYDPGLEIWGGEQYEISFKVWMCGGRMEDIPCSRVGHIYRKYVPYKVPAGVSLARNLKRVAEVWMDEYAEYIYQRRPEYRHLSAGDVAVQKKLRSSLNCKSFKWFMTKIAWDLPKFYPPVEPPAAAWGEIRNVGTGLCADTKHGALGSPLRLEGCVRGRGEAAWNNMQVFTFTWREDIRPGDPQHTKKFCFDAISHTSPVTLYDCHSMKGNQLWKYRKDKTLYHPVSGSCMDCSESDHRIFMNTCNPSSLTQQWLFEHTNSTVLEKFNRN

[13] = biological target: T2, Polypeptide N-acetylgalactosaminyltransferase 2; experiment: Inhibition of catalytic activity of human recombinant FLAG-tagged ppGalNAcT2 expressed in HEK293T cells and using 5-FAM labelled-EA2 peptide as substrate incubated for 30 mins by HPLC-based enzyme assay
[14] = biological target: T2, Polypeptide N-acetylgalactosaminyltransferase 2; experiment: Inhibition of ppGalNAcT2 in human HT-29 cells assessed as reduction in O-GalNAc glycans by measuring PNA lectin signal on cell surface at 40 uM incubated for 48 hrs by DAPI staining based immunofluorescence method
[15] = tested on: HT-29; experiment: Effect on ppGalNAcT3 expression level in human HT-29 cells at 40 uM incubated for 48 hrs by Q-PCR analysis; type: ADME, cell-based; settings: ht-29, 48 h
[16] = biological target: T4, Polypeptide N-acetylgalactosaminyltransferase 13 (Homo sapiens, UniProt Q8IUC8); experiment: Inhibition of catalytic activity of ppGalNAcT13 (unknown origin) using EA2 peptide as substrate incubated for 30 mins by HPLC-based enzyme assay
T4 sequence (Q8IUC8 whole entry): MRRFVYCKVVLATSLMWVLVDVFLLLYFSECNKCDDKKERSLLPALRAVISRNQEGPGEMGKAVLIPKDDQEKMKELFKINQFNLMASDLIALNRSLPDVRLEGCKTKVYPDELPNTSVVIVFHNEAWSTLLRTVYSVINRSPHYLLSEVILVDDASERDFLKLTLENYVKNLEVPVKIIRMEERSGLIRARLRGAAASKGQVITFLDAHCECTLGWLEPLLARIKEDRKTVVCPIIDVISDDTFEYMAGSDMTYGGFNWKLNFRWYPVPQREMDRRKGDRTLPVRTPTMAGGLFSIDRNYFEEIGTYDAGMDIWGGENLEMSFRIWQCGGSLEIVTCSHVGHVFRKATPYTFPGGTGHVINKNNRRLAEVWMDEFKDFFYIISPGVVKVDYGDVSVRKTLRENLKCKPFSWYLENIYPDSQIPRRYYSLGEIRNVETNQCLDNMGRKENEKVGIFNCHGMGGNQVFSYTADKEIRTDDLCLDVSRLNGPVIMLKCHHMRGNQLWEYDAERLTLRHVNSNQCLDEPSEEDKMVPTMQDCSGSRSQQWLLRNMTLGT

T2 sequence (Q10471 whole entry): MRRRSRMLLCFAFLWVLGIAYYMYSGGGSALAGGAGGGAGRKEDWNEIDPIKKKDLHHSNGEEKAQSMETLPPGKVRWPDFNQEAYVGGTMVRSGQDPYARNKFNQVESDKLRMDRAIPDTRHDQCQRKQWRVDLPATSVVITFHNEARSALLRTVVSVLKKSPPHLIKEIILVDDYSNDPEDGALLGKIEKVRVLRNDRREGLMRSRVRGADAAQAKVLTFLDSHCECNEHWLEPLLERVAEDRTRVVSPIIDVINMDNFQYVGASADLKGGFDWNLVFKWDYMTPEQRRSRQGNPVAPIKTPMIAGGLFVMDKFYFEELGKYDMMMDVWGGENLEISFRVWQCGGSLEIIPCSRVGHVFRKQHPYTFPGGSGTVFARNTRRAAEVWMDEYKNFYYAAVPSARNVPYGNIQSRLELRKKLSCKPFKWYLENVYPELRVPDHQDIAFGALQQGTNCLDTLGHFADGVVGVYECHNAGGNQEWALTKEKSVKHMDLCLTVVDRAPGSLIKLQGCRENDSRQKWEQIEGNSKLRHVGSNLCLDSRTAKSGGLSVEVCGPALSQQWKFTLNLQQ

IC50 [1]: 1830 nM
koff [2]: 1.04 ×10⁻³ /s
inhibition [5]: Active
IC50 [9]: 1250 nM
inhibition [11]: Dose-dependent effect
IC50 [12]: 330 nM
IC50 [13]: 760 nM
inhibition [14]: Active
IC50 [16]: 13800 nM
SMILES: O=c1oc2c(O)c(O)ccc2c2cc(O)c(O)cc12
Activity [3]: Non-Toxic
Activity [4]: Non-Toxic
Activity [6]: Non-Toxic
Activity [7]: Non-Toxic
Activity [8]: Active
Activity [10]: Non-Toxic
Activity [15]: Non-Toxic
